Assay results taken from PubChem BioAssay (NCI).
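How tested: cells in 96-well plates exposed to compound for 48 hours at five concentrations. The concentration for full growth arrest is given as TGI.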

Legend:
Assay in all cases: NCI anticancer screen, dose series, 48 h
HCC-2998 colon = tested on: HCC-2998 colon
K-562 leukemia = tested on: K-562 leukemia
DLD-1 colon = tested on: DLD-1 colon
SNB-78 CNS = tested on: SNB-78 CNS
SK-MEL-5 melanoma = tested on: SK-MEL-5 melanoma
SF-268 CNS = tested on: SF-268 CNS
U251 CNS = tested on: U251 CNS
SW-620 colon = tested on: SW-620 colon
HCT-15 colon = tested on: HCT-15 colon
CCRF-CEM leukemia = tested on: CCRF-CEM leukemia
MOLT-4 leukemia = tested on: MOLT-4 leukemia
OVCAR-8 ovarian = tested on: OVCAR-8 ovarian
XF 498 CNS = tested on: XF 498 CNS
KM20L2 colon = tested on: KM20L2 colon
M14 melanoma = tested on: M14 melanoma
SK-MEL-2 melanoma = tested on: SK-MEL-2 melanoma
A549 NSCLC = tested on: A549 NSCLC
HOP-18 NSCLC = tested on: HOP-18 NSCLC
OVCAR-3 ovarian = tested on: OVCAR-3 ovarian
MALME-3M melanoma = tested on: MALME-3M melanoma
NCI-H23 lung = tested on: NCI-H23 lung
SNB-19 CNS = tested on: SNB-19 CNS
KM12 colon = tested on: KM12 colon
NCI-H522 lung = tested on: NCI-H522 lung
SF-539 CNS = tested on: SF-539 CNS
HCT-116 colon = tested on: HCT-116 colon
LOX IMVI melanoma = tested on: LOX IMVI melanoma
RPMI-8226 leukemia = tested on: RPMI-8226 leukemia
HOP-92 NSCLC = tested on: HOP-92 NSCLC
SN12C renal = tested on: SN12C renal
UACC-62 melanoma = tested on: UACC-62 melanoma
ACHN renal = tested on: ACHN renal
COLO 205 colon = tested on: COLO 205 colon
HT29 colon = tested on: HT29 colon
SF-295 CNS = tested on: SF-295 CNS
HL-60(TB) leukemia = tested on: HL-60(TB) leukemia
NCI-H460 lung = tested on: NCI-H460 lung
NCI-H226 lung = tested on: NCI-H226 lung
OVCAR-4 ovarian = tested on: OVCAR-4 ovarian
SK-MEL-28 melanoma = tested on: SK-MEL-28 melanoma
SNB-75 CNS = tested on: SNB-75 CNS
M19-MEL melanoma = tested on: M19-MEL melanoma
786-0 renal = tested on: 786-0 renal
EKVX NSCLC = tested on: EKVX NSCLC
UO-31 renal = tested on: UO-31 renal
DMS 114 small cell lung = tested on: DMS 114 small cell lung
OVCAR-5 ovarian = tested on: OVCAR-5 ovarian
LXFL 529 NSCLC = tested on: LXFL 529 NSCLC
UACC-257 melanoma = tested on: UACC-257 melanoma
SK-OV-3 ovarian = tested on: SK-OV-3 ovarian
RXF 393 renal = tested on: RXF 393 renal
DMS 273 small cell lung = tested on: DMS 273 small cell lung
TK-10 renal = tested on: TK-10 renal
IGROV1 ovarian = tested on: IGROV1 ovarian
A498 renal = tested on: A498 renal
HOP-62 NSCLC = tested on: HOP-62 NSCLC
CAKI-1 renal = tested on: CAKI-1 renal

Cc1cn(C2CC(n3cncn3)C(C(C)O)O2)c(=O)[nH]c1=O (stereo unspecified)
TGI (HCC-2998 colon): > 100 µM
TGI (K-562 leukemia): > 100 µM
TGI (DLD-1 colon): > 100 µM
TGI (SNB-78 CNS): > 100 µM
TGI (SK-MEL-5 melanoma): > 100 µM
TGI (SF-268 CNS): > 100 µM
TGI (U251 CNS): > 100 µM
TGI (SW-620 colon): > 100 µM
TGI (HCT-15 colon): > 100 µM
TGI (CCRF-CEM leukemia): > 100 µM
TGI (MOLT-4 leukemia): > 100 µM
TGI (OVCAR-8 ovarian): > 100 µM
TGI (XF 498 CNS): > 100 µM
TGI (KM20L2 colon): > 100 µM
TGI (M14 melanoma): > 100 µM
TGI (SK-MEL-2 melanoma): > 100 µM
TGI (A549 NSCLC): > 100 µM
TGI (HOP-18 NSCLC): > 100 µM
TGI (OVCAR-3 ovarian): > 100 µM
TGI (MALME-3M melanoma): > 100 µM
TGI (NCI-H23 lung): > 100 µM
TGI (SNB-19 CNS): > 100 µM
TGI (KM12 colon): > 100 µM
TGI (NCI-H522 lung): > 100 µM
TGI (SF-539 CNS): > 100 µM
TGI (HCT-116 colon): > 100 µM
TGI (LOX IMVI melanoma): > 100 µM
TGI (RPMI-8226 leukemia): > 100 µM
TGI (HOP-92 NSCLC): > 100 µM
TGI (SN12C renal): > 100 µM
TGI (UACC-62 melanoma): > 100 µM
TGI (ACHN renal): > 100 µM
TGI (COLO 205 colon): > 100 µM
TGI (HT29 colon): > 100 µM
TGI (SF-295 CNS): > 100 µM
TGI (HL-60(TB) leukemia): > 100 µM
TGI (NCI-H460 lung): > 100 µM
TGI (NCI-H226 lung): > 100 µM
TGI (OVCAR-4 ovarian): > 100 µM
TGI (SK-MEL-28 melanoma): > 100 µM
TGI (SNB-75 CNS): > 100 µM
TGI (M19-MEL melanoma): > 100 µM
TGI (786-0 renal): > 100 µM
TGI (EKVX NSCLC): > 100 µM
TGI (UO-31 renal): > 100 µM
TGI (DMS 114 small cell lung): > 100 µM
TGI (OVCAR-5 ovarian): > 100 µM
TGI (LXFL 529 NSCLC): > 100 µM
TGI (UACC-257 melanoma): > 100 µM
TGI (SK-OV-3 ovarian): > 100 µM
TGI (RXF 393 renal): > 100 µM
TGI (DMS 273 small cell lung): > 100 µM
TGI (TK-10 renal): > 100 µM
TGI (IGROV1 ovarian): > 100 µM

N#Cc1cccc(N2C(=O)c3ccc(C(=O)c4ccc5c(c4)C(=O)N(c4cccc(C#N)c4)C5=O)cc3C2=O)c1
TGI (K-562 leukemia): > 100 µM
TGI (DLD-1 colon): > 100 µM
TGI (SNB-78 CNS): > 100 µM
TGI (SK-MEL-5 melanoma): > 100 µM
TGI (SF-268 CNS): > 100 µM
TGI (U251 CNS): > 100 µM
TGI (SW-620 colon): > 100 µM
TGI (HCT-15 colon): > 100 µM
TGI (CCRF-CEM leukemia): > 100 µM
TGI (MOLT-4 leukemia): > 100 µM
TGI (OVCAR-8 ovarian): > 100 µM
TGI (XF 498 CNS): > 100 µM
TGI (KM20L2 colon): > 100 µM
TGI (M14 melanoma): > 100 µM
TGI (SK-MEL-2 melanoma): > 100 µM
TGI (A549 NSCLC): > 100 µM
TGI (HOP-18 NSCLC): > 100 µM
TGI (OVCAR-3 ovarian): > 100 µM
TGI (MALME-3M melanoma): > 100 µM
TGI (NCI-H23 lung): > 100 µM
TGI (SNB-19 CNS): > 100 µM
TGI (KM12 colon): > 100 µM
TGI (NCI-H522 lung): > 100 µM
TGI (SF-539 CNS): > 100 µM
TGI (HCT-116 colon): > 100 µM
TGI (LOX IMVI melanoma): > 100 µM
TGI (A498 renal): > 100 µM
TGI (RPMI-8226 leukemia): > 100 µM
TGI (HOP-92 NSCLC): > 100 µM
TGI (SN12C renal): > 100 µM
TGI (UACC-62 melanoma): > 100 µM
TGI (HOP-62 NSCLC): > 100 µM
TGI (COLO 205 colon): > 100 µM
TGI (HT29 colon): > 100 µM
TGI (SF-295 CNS): > 100 µM
TGI (HL-60(TB) leukemia): > 100 µM
TGI (NCI-H460 lung): > 100 µM
TGI (NCI-H226 lung): > 100 µM
TGI (OVCAR-4 ovarian): > 100 µM
TGI (SNB-75 CNS): > 100 µM
TGI (M19-MEL melanoma): > 100 µM
TGI (786-0 renal): > 100 µM
TGI (EKVX NSCLC): > 100 µM
TGI (UO-31 renal): > 100 µM
TGI (DMS 114 small cell lung): > 100 µM
TGI (OVCAR-5 ovarian): > 100 µM
TGI (LXFL 529 NSCLC): > 100 µM
TGI (UACC-257 melanoma): > 100 µM
TGI (SK-OV-3 ovarian): > 100 µM
TGI (CAKI-1 renal): > 100 µM
TGI (RXF 393 renal): > 100 µM
TGI (DMS 273 small cell lung): > 100 µM
TGI (TK-10 renal): > 100 µM
TGI (IGROV1 ovarian): > 100 µM

COc1ccc(/C(Cl)=C(\C=O)c2ccc(Cl)c(Cl)c2)cc1
TGI (K-562 leukemia): > 100 µM
TGI (DLD-1 colon): 25.5 µM
TGI (SNB-78 CNS): 49 µM
TGI (SK-MEL-5 melanoma): 25.8 µM
TGI (SF-268 CNS): 24.9 µM
TGI (U251 CNS): 18.4 µM
TGI (SW-620 colon): 19.3 µM
TGI (HCT-15 colon): 20.4 µM
TGI (CCRF-CEM leukemia): 30.2 µM
TGI (MOLT-4 leukemia): 7.36 µM
TGI (OVCAR-8 ovarian): 32.3 µM
TGI (XF 498 CNS): 24.3 µM
TGI (KM20L2 colon): 24 µM
TGI (M14 melanoma): 38 µM
TGI (SK-MEL-2 melanoma): 15.5 µM
TGI (HOP-18 NSCLC): 28.3 µM
TGI (OVCAR-3 ovarian): 31.9 µM
TGI (MALME-3M melanoma): 34.1 µM
TGI (SNB-19 CNS): 30.1 µM
TGI (NCI-H522 lung): 7.76 µM
TGI (SF-539 CNS): 22.2 µM
TGI (HCT-116 colon): 14.1 µM
TGI (LOX IMVI melanoma): 13.9 µM
TGI (A498 renal): 35.6 µM
TGI (RPMI-8226 leukemia): 8.05 µM
TGI (HOP-92 NSCLC): 24.3 µM
TGI (SN12C renal): 29.2 µM
TGI (UACC-62 melanoma): 26.7 µM
TGI (ACHN renal): 20 µM
TGI (HOP-62 NSCLC): 27.2 µM
TGI (COLO 205 colon): 36.6 µM
TGI (HT29 colon): 15.5 µM
TGI (SF-295 CNS): 22 µM
TGI (HL-60(TB) leukemia): 23.9 µM
TGI (NCI-H460 lung): 19 µM
TGI (NCI-H226 lung): 36.4 µM
TGI (SK-MEL-28 melanoma): 31 µM
TGI (SNB-75 CNS): 7.87 µM
TGI (M19-MEL melanoma): 28.2 µM
TGI (EKVX NSCLC): 37.9 µM
TGI (UO-31 renal): 26.8 µM
TGI (DMS 114 small cell lung): 18 µM
TGI (LXFL 529 NSCLC): 20.4 µM
TGI (SK-OV-3 ovarian): 55 µM
TGI (CAKI-1 renal): 23 µM
TGI (DMS 273 small cell lung): 32.8 µM
TGI (TK-10 renal): 32.5 µM
TGI (IGROV1 ovarian): 33.7 µM
